In one data set the test system is A549 cells. The data set is described as follows: 15-HETE generation by IL-1β-treated A549 cells. The format is cell-based, human. To be noted: permeabilized IL-1β-treated A549 cells, arachidonic acid 20 μM. How it is done: FIG. 3 is a graph showing the relative chiralities of 15-HETE triggered by ASA. A549 cells (10^7 cells per flask) were exposed to IL-1β (1 ng/ml) for 24 h, treated with vehicle (0.1% vol/vol ethanol) (□) or ASA (▪) for 20 min and then incubated (30 min, 37° C.) in HBSS containing arachidonic acid (20 μM) and A23187 (5 μM). Products were chromatographed by RP-HPLC (as in FIG. 1B) and the region containing 15-HETE was collected, extracted with chloroform and treated with diazomethane. Chiral analysis was performed with a Bakerbond DNBPG (see Methods for details). Results are representative of two separate experiments showing similar results.
In incubations involving permeabilized A549 cells (prepared by a rapid freeze-thaw cycle), IL-1β-treated (1 ng/ml, 24 h) A549 cells (1.5×10^6 cells/ml) were pretreated for 20 min with either vehicle (0.1% EtOH), ASA (500 (M; used throughout), 5 (M 17-ODYA, an inhibitor of cytochrome P450, (Muerhoff A. S., et al. (1989) Prostaglandin and fatty acid ω and (ω-1)-oxidation in rabbit lung: acetylenic fatty acid mechanism-based inactivators as specific inhibitors. J Biol.Chem. 244: 749-756.), or […] Rev 5901 isomer, a 5-LO inhibitor, subjected to two cycles of rapid freezing in a dry ice-acetone bath and thawing to room temperature (full cycle <20 min), and incubated with arachidonic acid ([…] for 20 min at 37° C. in 4 ml of DPBS^2+. In experiments involving radiolabeled arachidonic acid, incubations were initiated with the addition of [^3H]-arachidonic acid (0.25 (Ci/ml) plus unlabeled arachidonic acid ([…] for 20 min at 37° C.
For time-course experiments involving the generation of 15-HETE from endogenous sources (see FIG. 2B), intact A549 cells were exposed to IL-1β (1 ng/ml) for up to 48 h and then treated with vehicle (containing 0.1% EtOH) or ASA for 20 min followed by addition of ionophore A23187 (5 μM) in 4 ml of HBSS for 30 min at 37° C.
The monohydroxy eicosanoids (i. e. 5-, 12- and 15-HETE) from A549 cells were analyzed using a Ultrasphere-ODS column (5 μm, 4.6 mm×25 cm) (Beckman Instruments, Fullerton, Calif.) was eluted with MeOH/H2O/acetic acid (65:35:0.01; v/v/v) as phase one (t0-20 min), and a linear gradient with MeOH/acetic acid (99.9:0.1, v/v) as phase two (20-45 min) at a flow rate of 1.0 ml/min. The R- and S-enantiomers of 15-HETE were resolved and identified using a chiral HPLC system similar to that reported by Hawkins et al. (1988). […] When indicated, generation of 15-HETE from endogenous sources was monitored by radioimmunoassay (RIA). […]

Data set [1] deals with T1, LXA4 specific binding sites of differentiated HL-60 cells (Homo sapiens, UniProt P25090).
T1 construct: endogenous in cells; host or cells: HL-60 cells differentiated with DMSO, retinoic acid or PMA; intact cells
T1 sequence (P25090 1-351): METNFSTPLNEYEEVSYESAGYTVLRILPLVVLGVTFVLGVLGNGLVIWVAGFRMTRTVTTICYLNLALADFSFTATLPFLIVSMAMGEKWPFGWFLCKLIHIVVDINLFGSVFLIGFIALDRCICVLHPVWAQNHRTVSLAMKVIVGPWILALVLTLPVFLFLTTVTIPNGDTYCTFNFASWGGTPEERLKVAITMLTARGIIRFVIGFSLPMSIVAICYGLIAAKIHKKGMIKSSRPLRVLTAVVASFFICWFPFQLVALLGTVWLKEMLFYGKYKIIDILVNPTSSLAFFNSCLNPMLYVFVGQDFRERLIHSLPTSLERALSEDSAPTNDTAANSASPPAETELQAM
Put plainly: 3H-LXA4 specific binding to differentiated HL-60 cells. As to conditions: for displacement of 3H-LXA4 specific binding: competition, competitor 300 nM where printed. Here is the method: Preparation of [11,12-^3H]LXA4. Tritiation of 11,12-acetylenic LXA4 methyl ester was carried out under a custom tritiation service (NET-259:92-2326) by New England Nuclear (Boston, Mass.). Briefly, 11,12-acetylene methyl ester was characterized by UV absorbance and reverse-phase HPLC as in (Nicolaou, K. C. et al. (1985) J. Am. Chem. Soc. 107:7515) and exposed to tritium atmosphere in methylene chloride at room temperature. This incubation was stirred in the presence of Lindlar catalyst (1.0 mg from Fluka Chemicals) for˜1 h. The resulting mixture was stored in methanol and isolated using RP-HPLC. Tritiated products were chromatographed as methyl esters utilizing a gradient HPLC system equipped with a photodiode array rapid spectral detector (Serhan, C. N., Methods in Enzymology: Arachidonate Related Lipid Mediators, in Murphy R. C., Fitzpatrick, F. (eds.), vol. 187. Orlando, Fla., Academic, (1990), p. 167). This mixture contained both [11,12-^3H]LXA4 and [11,12-^3H]-11-trans-LXA4 methyl esters (˜1:3 ratio) as determined by coelution with synthetic standards. After RP-HPLC, fractions containing [11,12-^3H]LXA4 were collected, and extracted into ethyl acetate. The free acid was prepared by LiOH saponification (Fiore, S. et al. (1992) J. Biol. Chem. 267:16168). Material from these fractions, when injected into UV-electrochemical detection HPLC, gave greater than 90% of radioactivity associated with a tetraene-containing product that coeluted with synthetic LXA4. Materials that eluted with the retention time of authentic LXA4 in two HPLC systems were taken for binding experiments. The specific activity calculated for [11,12-^3H]LXA4 was 40.5 Ci/mmole.
Cell cultures and differentiation. HL-60 cells were seeded in RPMI medium supplemented with 100 U/ml penicillin, 100 μg/ml streptomycin, and 10% fetal calf serum (Hyclone, Logan, Utah), incubated at 37° C. with 5% CO2 atmosphere in 250 ml flasks. Individual flasks containing ˜[…] next received dimethyl sulfoxide (DMSO) (1.12% v/v, 120 h) or retinoic acid (RA) (1 μM, 120 h) or phorbol myristate acetate (PMA) (20 nM, 48 h). Before performing binding assays, cells were washed twice in phosphate buffered saline (PBS), Ca^2+- and Mg^2+-free, enumerated and suspended at 20×10^6 cells/ml in Tris buffer (10 mM), pH 7.4 (Fiore, S. et al.(1992) J. Biol. Chem. 267:16168). Nitro blue tetrazolium reduction was performed to monitor induction of polymorphonuclear phenotype as in (Imaizumi, M. and Breitman, T. R. (1986) Blood 67:1273), and cell adherence was determined for induction of macrophage-like phenotype (Collins, S. J. (1987) Blood 70:1273). Human umbilical vein endothelial cells (HUVEC) maintained in culture third passage were obtained from Dr. M. Gimbrone (Brigham and Women's Hospital Department of Pathology).
Ligand binding. ^3H-LXA4 and ^3H-LTB4 binding was performed essentially as in Fiore, S. et al.(1992) J. Biol. Chem. 267:16168. After suspending cells in Tris buffer 10 mM (pH 7.4, Ca^2+ 2.5 mM, Mg^2+ 1.2 mM), aliquots (0.5 ml) were incubated (20 min at 4° C.) with ^3H- ligands alone (0.3 nM) or in the presence of increasing concentrations of homoligands or other compounds (3-300 nM). The incubations were rapidly centrifuged (60 sec, 12,000 g) on silicon oil (d=1.028), and cell-associated radioactivity was determined by liquid scintillation counting (Wallac 1409, Pharmacia, Piscataway, N.J.). Binding experiments with HUVEC cells were performed in 12 well plates with 3.5×10^5 cells/well. After 10 min, wells were washed twice with PBS and cell-associated label was recovered by adding glacial acetic acid (0.5 ml). Results obtained from these assays were submitted for further analysis using the Ligand program (Elsevier-Biosoft, Cambridge, UK).
(In general: Displacement assays read how much labelled ligand stays bound in the presence of the test substance.)

For another data set, the system named is PMA-treated HL-60 cells. Put plainly: Lipoxin metabolism / bio-half-life assay with phorbol ester-treated HL-60 cells. The format is in vitro ADME, human. To be noted: at times up to two hours. Here is the method:
HL-60 cells were purchased from American Type Culture Collection (Rockville, Md.), and other cell culture reagents were from GIBCO (Grand Island, N.Y.). Versene (EDTA) was from Whittaker Bioproducts (Walkersville, Md.). Synthetic 11,12-acetylenic LXA4 methyl ester and LXs were from Cascade Biochemical (Reading, U.K.). 15(S)-15-m-PGE1, PGE1, and 5-HETE were from Cayman Chemical Co. (Ann Arbor, Mich.). [11,12-^3H]LXA4 was prepared from 11,12-acetylenic LXA4 using Lindlar catalyst as a custom tritiation (NET-259, lot 0 2793-275, New England Nuclear, Boston, Mass.). Tritiated products were isolated using RP-HPLC (Fiore et al. (1992) J. Biol. Chem. 267:16168; Serhan, C. N. (1990) Meth. Enzymol. 187:167). Methoxyamine and NAD were from Sigma Chemical Company (St. Louis, Mo.). Manganese dioxide and Adams reagent were from Aldrich Chemical Co. (Milwaukee, Wis.).
Human PMN were obtained from healthy volunteers by gradient centrifugation of heparinized fresh venous blood (Böyum, A. ([…]) Scand. J. Clin. Lab. Invest. 21:77). HL-60 cells were seeded in RPMI supplemented with penicillin (100 U/ml), streptomycin (100 μ/ml), fetal bovine serum (10%) (Hyclone, Logan, Utah) and incubated (37° C. with 5% CO2 atmosphere) in plastic 250 ml flasks. Individual flasks containing […] HL-60 cells/ml were incubated in the presence or absence of phorbol 12-myristate 13-acetate (PMA) (10 or 16 nM, 24-27 h) and adherence was monitored for induction of macrophage-like phenotype as in Collins, S. J. (1987) Blood 70:1233. […]
Incubations with eicosanoids were stopped with cold methanol containing either PGB2 or 5-HETE as internal standards (5-HETE was used when 15-oxo-ETE was quantified). […] Formation of 15-oxo-ETE by 100,000 g supernatants (cf. Agins, A. P. et al. (1987) Agents Actions 21:397; Xun, C-Q. et al.(1991) Biochem. J. 279:553; and Sok, D-E. et al. (1988) Biochem. Biophys. Res. Commun. 156:524) was quantified after RP-HPLC using an ODS column (4.6 mm×25 cm) eluted with methanol/H2O/acetic acid (70:30:0.01, v/v/v) monitored at 280 nm with a flow rate of 1 ml/min. […] On-line spectra were recorded using a diode array detector (Hewlett-Packard 1040M series II) equipped with HPLC^3D ChemStation software (DOS series). […]
The “bio-half-life” of compounds 1-8 was assessed using phorbol ester-treated human promyelocytic leukemia (HL-60) cells as described in Example 2. […]

As for `C#CCCCCCCCCCCCCCCCC(=O)O` [17-ODYA, 17-octadecaynoic acid], the “reduction in 15-HETE” value in the data set on A549 cells is approximately 50%.
Take `CCCCC/C=C\C\C=C/C=C/C=C/[C@@H](SC[C@H](NC(=O)CC[C@H](N)C(=O)O)C(=O)NCC(=O)O)[C@@H](O)CCCC(=O)O` [LTC4]: in data set [1] (added in 3 log molar excess), the “decrease of 3H-LXA4 specific binding” value is recorded as approximately 30%.
Turning to `COc1ccc(/C=C/CCCCOc2cccc(OCCCCC(=O)O)c2CCC(=O)O)cc1` [ONO-4057], the “displacement of 3H-LXA4 specific binding” value in data set [1] is reported as “did not displace”.
Take cyclohexyl-LXA4 [compound 4]: the “recovery in the incubation medium (bio-half-life)” value with PMA-treated HL-60 cells is listed as “quantitatively recovered”.
Turning to trihydroxyheptanoic acid (methyl ester), in data set [1], the “displacement of 3H-LXA4 specific binding” value was “Neither LXB4, LTB4, nor trihydroxyheptanoic acid (methyl ester) (300 nM) were able to displace”.

(Values after patent US20030134901A1, “Lipoxin compounds and their use in treating cell proliferative disorders” (priority 1993, published 2003).)
